Results taken from PubChem BioAssay (NCI).
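Five compound concentrations were applied to cells in 96-well plates for 48 hours; endpoints were derived by simple linear interpolation of the resulting dose-response curve. At the GI50, growth is halved. TGI denotes the concentration required for complete inhibition of growth.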

Columns and labels:
Experiment in all cases: growth of human tumour cells (NCI), 48 h
OVCAR-8 ovarian = test system: OVCAR-8 ovarian
NCI-H23 lung = test system: NCI-H23 lung
U251 CNS = test system: U251 CNS
COLO 205 colon = test system: COLO 205 colon
RXF 393 renal = test system: RXF 393 renal
MDA-MB-435 = test system: MDA-MB-435
DU-145 prostate = test system: DU-145 prostate
SK-MEL-5 melanoma = test system: SK-MEL-5 melanoma
SK-OV-3 ovarian = test system: SK-OV-3 ovarian
SNB-75 CNS = test system: SNB-75 CNS
NCI/ADR-RES ovarian = test system: NCI/ADR-RES ovarian
ACHN renal = test system: ACHN renal
TK-10 renal = test system: TK-10 renal
MCF7 breast = test system: MCF7 breast
IGROV1 ovarian = test system: IGROV1 ovarian
SK-MEL-2 melanoma = test system: SK-MEL-2 melanoma
A498 renal = test system: A498 renal
SW-620 colon = test system: SW-620 colon
HS 578T breast = test system: HS 578T breast
BT-549 breast = test system: BT-549 breast
UACC-257 melanoma = test system: UACC-257 melanoma
SN12C renal = test system: SN12C renal
NCI-H460 lung = test system: NCI-H460 lung
M14 melanoma = test system: M14 melanoma
KM12 colon = test system: KM12 colon
UACC-62 melanoma = test system: UACC-62 melanoma
OVCAR-4 ovarian = test system: OVCAR-4 ovarian
SNB-19 CNS = test system: SNB-19 CNS
HOP-62 NSCLC = test system: HOP-62 NSCLC

## CCC(=O)Nc1cc(Nc2cc(NC3CC3)n3ncc(C#N)c3n2)ccc1C
OVCAR-8 ovarian
  GI50: 3.63 µM
  TGI: > 100 µM
NCI-H23 lung
  GI50: 1.12 µM
  TGI: 14.9 µM
U251 CNS
  GI50: 0.94 µM
  TGI: > 100 µM
COLO 205 colon
  GI50: 0.981 µM
  TGI: 16.3 µM
RXF 393 renal
  GI50: 3.29 µM
  TGI: 15.5 µM
MDA-MB-435
  GI50: 2.06 µM
  TGI: 30.7 µM
DU-145 prostate
  GI50: 3.96 µM
  TGI: 73.3 µM
SK-MEL-5 melanoma
  GI50: 1.6 µM
  TGI: 9.15 µM
SK-OV-3 ovarian
  GI50: 1.6 µM
  TGI: 9.04 µM
SNB-75 CNS
  GI50: 0.0521 µM
  TGI: 0.974 µM
NCI/ADR-RES ovarian
  GI50: 2.99 µM
  TGI: 30.3 µM
ACHN renal
  GI50: 1.67 µM
  TGI: 15.6 µM
TK-10 renal
  GI50: 0.987 µM
  TGI: 7.52 µM
MCF7 breast
  GI50: 0.421 µM
  TGI: 10.7 µM
IGROV1 ovarian
  GI50: 1.27 µM
  TGI: 6.29 µM
SK-MEL-2 melanoma
  GI50: 2.65 µM
  TGI: 18.6 µM
A498 renal
  GI50: 0.0965 µM
  TGI: 1.16 µM
SW-620 colon
  GI50: 1.28 µM
  TGI: 19 µM
HS 578T breast
  GI50: 0.216 µM
  TGI: 1.03 µM
BT-549 breast
  GI50: 1.11 µM
  TGI: 7.45 µM
UACC-257 melanoma
  GI50: 1.77 µM
  TGI: 53.6 µM
SN12C renal
  GI50: 3.16 µM
  TGI: > 100 µM
NCI-H460 lung
  GI50: 0.772 µM
  TGI: 12.3 µM
M14 melanoma
  TGI: 12.5 µM
KM12 colon
  GI50: 1.81 µM
  TGI: 47 µM
UACC-62 melanoma
  GI50: 1.22 µM
  TGI: 12.1 µM
OVCAR-4 ovarian
  GI50: 1.66 µM
  TGI: 67.1 µM
SNB-19 CNS
  GI50: 1.77 µM
  TGI: > 100 µM
HOP-62 NSCLC
  GI50: 1.84 µM
  TGI: 25.7 µM
